Results: patent publication US6514761B1, “Methods of using BCL-2 for the therapeutic treatment and prevention of diseases” (The Burnham Institute, priority 1993, dated 2003)

Assays:
32D-3 cells [1] = experiment: Viability of stably transfected 32D-3 cells in culture (trypan blue exclusion); type: cell-based; conditions: cells expressing the protein, followed over days in culture, versus Neo control
Source text: FIG. 2A. Cell viability as determined by trypan blue exclusion (mean +/− standard deviation of 3 determinations). W.T., wild-type Bcl-2; P59S, mutant Bcl-2; Neo, control.
32D-3 cells were stably transfected with expression plasmids containing a G418 antibiotic resistance gene and either a wild-type or mutant human Bcl-2 DNA sequence. The mutant Bcl-2 sequence encodes a variant Bcl-2 protein having a serine substitution for a proline at amino acid position 59 (BCL2/P59S). This amino acid substitution results in a high level of constitutive expression of BCL2/P59S.
Following selection of the cells for G418 resistance, cells were plated and their viability was determined.

PC12 cells = experiment: Glutamate-induced death of PC12 cells (MTT dye reduction assay); type: cell-based, rat; conditions: PC12 cells infected with pZIP-BCL-2; 30 mM glutamate, 24 hours
Experimental: FIG. 4. Protection of PC12 cells from glutamate-induced death by Bcl-2. Cell viability as determined by MTT dye reduction assay (mean +/− standard deviation of 3 determinations).
The rat pheochromocytoma cell line, PC12, was stably infected with pZIP-BCL-2 or pZIP-NEO (see FIG. 1B), then treated with 30 mM glutamate for 24 hours. Following treatment, cell viability was assessed by MTT dye reduction assay as described in Tada et al., J. Immunol. Meth. 93:157-165 (1986).

[2] = test system: in vitro self-assembled nuclei; experiment: Cell-free apoptosis assay: nuclei assembled in Xenopus egg extracts with sperm chromatin; parameters: species or system Xenopus laevis
Experimental: A cell-free assay for assessing Bcl-2 function was developed to rapidly screen compounds for ability to inhibit or enhance Bcl-2 protein function. The assay utilizes in vitro self-assembled nuclei generated by mixing cell extracts derived from Xenopus laevis eggs with isolated sperm chromatin. The nuclei assemble normally but, after about 2 hours, begin to disintegrate. The nuclei appeared contracted and had the same appearance as isolated nuclei that had been treated briefly with an endonuclease. This phenomenon appears to represent apoptosis. Alternatively, isolated hepatocyte nuclei can be substituted for sperm chromatin and mixed with the egg extracts, resulting in the same phenomenon.
To test the effect of Bcl-2 protein on nuclei, lysates were prepared from Sf9 insect cells infected with recombinant baculoviruses encoding either Bcl-2 or an irrelevant protein such as β-galactosidase (β-gal) or the Lck kinase (see Reed et al., Anal. Biochem. 205:70-76 (1992). To confirm that Bcl-2 was expressed in the insect cell lysates, Sf9 insect cells were infected with recombinant Bcl-2 baculovirus or recombinant Lck baculovirus vectors. Infected cells were incubated for three days to allow expression of the gene products, then lysates were obtained and fractionated by SDS-PAGE electrophoresis. Following electrophoresis, proteins were transferred to membrane and probed with an antiserum raised against a synthetic peptide corresponding to part of the predicted amino acid sequence of human Bcl-2. […] Bcl-2 protein comprised about 5-10% of the total extracted protein.
Sf9 cell lysates were added at a 1:90 dilution into the Xenopus extracts or to a final protein concentration of 10 μg/ml (see Newmeyer and Wilson, Meth. Cell Biol. 36:607-634 (1991), which is incorporated herein by reference). […] After about another 40 min of incubation, the nuclei had disintegrated completely (FIG. 9B) and a generally dispersed filamentous background of Hoechst fluorescence remained along with many small spherical or irregularly shaped aggregates of chromatin (not shown). […]

AT-3 cells = experiment: Sindbis virus-induced death of AT-3 prostate cancer cells (trypan blue exclusion); type: cell-based, rat; conditions: AT-3 cells infected with pZIP-BCL2, grown with Sindbis virus
Source text: FIG. 3. Bcl-2 blocks prostate cancer cell line, AT-3, death induced by Sindbis virus infection. Cell viability as determine by trypan blue exclusion (mean +/− standard deviation of 3 determinations). pZIP-BCL2 or pZIP-NEO are described in FIG. 1B. AT-3-NEO control cells (circles); AT-3-BCL2 cells (squares). Virus infected cells (solid symbols); cells cultured in the absence of virus (open symbols).
A rat prostate cancer cell line, AT-3, was infected with pZIP-BCL2 or pZIP-NEO (see FIG. 1B), then grown in the presence or absence of Sindbis virus. At various times after the addition of Sindbis virus, cells were collected and cell viability was determine using trypan blue exclusion.

32D-3 cells [3] = experiment: Survival of transfected 32D-3 cells cultured without growth factor; type: cell-based; conditions: 32D-3 cells expressing the protein, growth factor deprivation
Source text: FIGS. 5A and 5B. Homologs of Bcl-2 prolong survival of 32D-3 cells grown in the absence of Il-3 for various times. Cell viability as determined by the trypan blue exclusion (mean +/− standard deviation of 3 determinations).
FIGS. 6A to 6C. Bcl-2 acts synergistically with Raf-1 to prolong cell survival under conditions of growth factor deprivation. Bcl-2 protein, alone (open circles); activated Raf-1 protein, alone (squares); Bcl-2+Raf-1 proteins (closed circles); no Bcl-2 or Raf-1 protein (triangles).
FIG. 7. A dominant-negative form of the Bcl-2 protein, Bcl-2β, accelerates cell death. Cell viability as determined by trypan blue exclusion. […]
32D-3 cells were stably transfected with expression plasmids containing either a hygromyin (HYG) or a G418 (NEO) antibiotic resistance gene and cDNA encoding either the human Bcl-2 protein, the chicken Bcl-2 protein or the BHRF-1 protein from Epstein Barr Virus (viral homolog of Bcl-2). […] Following transfection, cells were cultured without growth factor for various times and the number of viable cells was determined.
32D-3 cells were stably transfected with expression plasmids producing Bcl-2 protein, activated Raf-1 protein or both Bcl-2 and Raf-1, then cultured under conditions of growth factor deprivation that cause apoptosis. At various times after removing the growth factor from the medium, cells were collected and viability was determined. […]

Bcl-2: about 26 kDa protein that promotes cell survival by blocking apoptosis; expressed by gene transfer or added as Sf9 lysate
number of viable cells in culture (32D-3 cells [1]): did not decrease during the time examined
protection from glutamate-induced cell death (PC12 cells): protected the PC12 cells from glutamate-induced death
intact, transport-competent nuclei ([2]; after 2 hours of incubation, Bcl-2-containing Sf9 lysate added to Xenopus extract): about 50%
nuclei remaining intact and transport-competent ([2]; after two hours and forty min incubation, Bcl-2-containing Sf9 lysate): 42%
amount of fluorescent transport substrate imported by nuclei ([2]; in one hour, Bcl-2-containing lysate): no gross changes
protection from Sindbis virus-induced cell death (AT-3 cells): protected from Sindbis virus-induced death
cell viability / survival without growth factor (32D-3 cells [3]): modest effect

B1: chicken Bcl-2: chicken Bcl-2 homolog expressed from cDNA in 32D-3 cells (protein, UniProt Q00709 1-233, looked up)
Apoptosis regulator Bcl-2: MAHPGRRGYDNREIVLKYIHYKLSQRGYDWAAGEDRPPVPPAPAPAAAPAAVAAAGASSHHRPEPPGSAAASEVPPAEGLRPAPPGVHLALRQAGDEFSRRYQRDFAQMSGQLHLTPFTAHGRFVAVVEELFRDGVNWGRIVAFFEFGGVMCVESVNREMSPLVDNIATWMTEYLNRHLHNWIQDNGGWDAFVELYGNSMRPLFDFSWISLKTILSLVLVGACITLGAYLGHK
cell viability / survival without growth factor (32D-3 cells [3]): nearly as effective as the human Bcl-2
